Test results from patent publication US20260256751A1, “COMBINATION OF BETA-2-ADRENERGIC RECEPTOR AGONISTS AND GLP-1 RECEPTOR AGONISTS FOR USE IN TREATING HYPERGLYCAEMIA” (ATROGI AB, priority 2023, published 2026).

How the values were obtained:
[1] = system: differentiated L6-myotubes; test: Glucose uptake screen (Biological example 1 of WO 2019/053427); type: cell-based; conditions: compound at 10 μM, activity relative to isoproterenol at 10 μM, read-out: Biological example 1 of WO 2019/053427 (GU)
Summary of the method: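 Uptake was read out as ^3H-2-deoxyglucose (50 nM, 10 min) radioactivity in NaOH lysates. Beforehand, overnight-starved, differentiated L6 myotubes received compound at 1×10^−5 M with ICI-118551 present for 1 h 40 min, followed by fresh agonist for a further 20 min in glucose-free medium.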

[2] = system: differentiated L6-myotubes; test: cAMP production relative to isoprenaline (Biological example 2 of WO 2019/053427); type: cell-based; conditions: 0.25 h, compound at 10 μM, activity relative to isoproterenol at 10 μM
Summary of the method: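 Values are cAMP levels relative to isoprenaline at equal concentration (final 1×10^−5 M for both). Stimulation lasted 15 min in differentiated L6 myotubes, using HBSS buffer (pH 7.4) containing 1 mM IBMX, 5 mM HEPES and 1% BSA.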

`CC(C)(NC[C@H](O)c1cccc(F)c1)[C@H]1CC[C@H](OCC(=O)O)CC1` [Compound 402, [(1R,r)-4-{1-[(R)-2-(m-fluorophenyl)-2-hydroxyethylamino]-1-methylethyl}cyclohexyloxy]acetic acid] showed an Emax at 10 µM [1] of 50 to 75% and an Emax at 10 µM [2] of under 25%.
`CC12CC(C1)[C@@H]([C@@H](O)c1cccc(Cl)c1)N2` [Compound 207, (S)-{(S)-1-methyl-2-azabicyclo[2.1.1]hex-3-yl}(m-chlorophenyl)methanol] gave an Emax at 10 µM [1] of 25 to 50% and an Emax at 10 µM [2] of under 25%.
In the case of `O[C@H](c1ccccc1F)C12CCC(CCc3cccnc3)(CC1)N2` [Compound 444, (R)-(o-fluorophenyl){4-[2-(3-pyridyl)ethyl]-7-azabicyclo[2.2.1]hept-1-yl}methanol], the Emax at 10 µM [1] is reported as over 75% and the Emax at 10 µM [2] is reported as 50 to 75%.
With `CCCCNCC(O)c1ccc(Cl)c(N)c1` (centres unmarked) [Compound 36, 1-(3-amino-4-chlorophenyl)-2-(butylamino)-1-ethanol] the Emax at 10 µM [1] was 25 to 50% and the Emax at 10 µM [2] was under 25%.
Work on `CCCCNC[C@H](O)c1cccc(O)c1F` [Compound 87, (R)-2-(butylamino)-1-(2-fluoro-3-hydroxyphenyl)-1-ethanol] yielded an Emax at 10 µM [1] of over 75% and an Emax at 10 µM [2] of 25 to 50%.
For `O[C@@H](c1cncc(F)c1)[C@H]1CC[C@@H](Cc2ccc(Cl)cc2)N1` [Compound 403, (S)-{(2R,5S)-5-[(p-chlorophenyl)methyl]-2-pyrroldiinyl}(5-fluoro-3-pyridyl)methanol], the Emax at 10 µM [1] was 50 to 75% and the Emax at 10 µM [2] was under 25%.
With `CC12CC(C1)[C@H]([C@H](O)c1cncc(F)c1)N2` [Compound 220, (R)-{(R)-1-methyl-2-azabicyclo[2.1.1]hex-3-yl}(5-fluoro-3-pyridyl)methanol] the Emax at 10 µM [1] was over 75% and the Emax at 10 µM [2] was under 25%.
In the case of `CC(=O)N[C@H]1CC[C@@H](CC(C)(C)NC[C@H](O)c2cccc(F)c2)CC1` [Compound 452, N-[(1S,4s)-4-{2-[(R)-2-(m-fluorophenyl)-2-hydroxyethylamino]-2-methylpropyl}cyclohexyl]acetamide], the Emax at 10 µM [1] is reported as over 75% and the Emax at 10 µM [2] is reported as under 25%.
`CCC[C@H]1CCCC[C@@H]([C@@H](O)c2cncc(F)c2)N1` [Compound 235, (S)-[(2S,7S)-7-propyl-2-azepanyl](5-fluoro-3-pyridyl)methanol] was tested, and the Emax at 10 µM [1] was under 25% and the Emax at 10 µM [2] was under 25%.
For `CC1(C)CC[C@H]([C@H](O)c2cccc(O)c2)N1` [Compound 112, m-{(R)-[(R)-5,5-dimethyl-2-pyrrolidinyl]hydroxymeth-yl}phenol], the Emax at 10 µM [1] was over 75% and the Emax at 10 µM [2] was under 25%.
`CC(C)(C)NC[C@H](O)c1cccc(C#N)n1` [Compound 387, 6-[(S)-2-(tert-butylamino)-1-hydroxyethyl]-2-pyridinecarbonitrile] showed an Emax at 10 µM [1] of over 75% and an Emax at 10 µM [2] of 25 to 50%.
`CC12CC(C1)[C@@H]([C@H](O)c1cncc(F)c1)N2` [Compound 223, (R)-{(S)-1-methyl-2-azabicyclo[2.1.1]hex-3-yl}(5-fluoro-3-pyridyl)methanol] showed an Emax at 10 µM [1] of 25 to 50% and an Emax at 10 µM [2] of under 25%.
Compound `CC(C)(C[C@H]1CC[C@@H](NS(C)(=O)=O)CC1)NC[C@@H](O)c1cccc(C#N)n1` [Compound 424, 6-[(R)-2-{1,1-dimethyl-2-[(1s,4S)-4-(mesylamino)cyclohexyl]ethylamino}-1-hydroxyethyl]-2-pyridinecarbonitrile] has an Emax at 10 µM [1] of 25 to 50% and an Emax at 10 µM [2] of under 25%.
Compound `O[C@H](c1cccc(F)c1)C12CCC(CCc3cccnc3)(CC1)N2` [Compound 446, (R)-(m-fluorophenyl){4-[2-(3-pyridyl)ethyl]-7-azabicyclo[2.2.1]hept-1-yl}methanol] has an Emax at 10 µM [1] of over 75% and an Emax at 10 µM [2] of 50 to 75%.
`CC(C)(CC[C@H]1CC[C@H](C(=O)O)CC1)NC[C@H](O)c1cccc(F)c1` [Compound 348, (1R,4r)-4-{3-[(R)-2-(m-fluorophenyl)-2-hydroxyethylamino]-3-methylbutyl}cyclohexanecarboxylic acid] showed an Emax at 10 µM [1] of under 25% and an Emax at 10 µM [2] of under 25%.
With `O[C@H](c1cncc(F)c1)C12CCC(CCc3ccc(OC(F)(F)F)cc3)(CC1)N2` [Compound 545, (R)-(5-fluoro-3-pryidyl){4-[2-(p-trifluoromethoxyphenyl)ethyl]-7-azabicyclo[2.2.1]hept-1-yl}methanol] the Emax at 10 µM [1] was under 25% and the Emax at 10 µM [2] was under 25%.
`O[C@@H](CNCC[C@H]1CC[C@@H](O)CC1)c1cncc(F)c1` [Compound 293, (R)-1-(5-fluoro-3-pyridyl)-2-{2-[(1s,4S)-4-hydroxycyclohexyl]ethylamino}-1-ethanol] showed an Emax at 10 µM [1] of 25 to 50% and an Emax at 10 µM [2] of under 25%.
Compound `CS(=O)(=O)N(Cc1ccccc1)[C@H]1CC[C@@H](C[C@@H]2CC[C@H]([C@@H](O)c3cccc(F)c3)N2)CC1` [Compound 509, (S)-[(2R,5S)-5-({(1s,4R)-4-[(benzyl)-N-mesylamino]cyclohexyl}methyl)-2-pyrrolidinyl](m-fluorophenyl)methanol] has an Emax at 10 µM [1] of under 25% and an Emax at 10 µM [2] of under 25%.
With `CCC[C@H]1CCC[C@H]([C@@H](O)c2ccc(F)cc2)N1` [Compound 105, (S)-[(2R,6S)-6-propyl-2-piperidyl](p-fluorophenyl)methanol] the Emax at 10 µM [1] was 25 to 50% and the Emax at 10 µM [2] was under 25%.
In the case of `CC12CCC([C@@H](O)c3ccccc3Cl)(CC1)N2` [Compound 194, (S)-(o-chlorophenyl)(4-methyl-7-azabicyclo[2.2.1]hept-1-yl)methanol], the Emax at 10 µM [1] is reported as over 75% and the Emax at 10 µM [2] is reported as under 25%.
In the case of `CC(C)(C[C@H]1CC[C@H](NC(=O)C(C)(C)C)CC1)NC[C@H](O)c1cccc(F)c1` [Compound 429, N-[(1R,4r)-4-{2-[(R)-2-(m-fluorophenyl)-2-hdyroxyethylamino]-2-methylpropyl}cyclohexyl]2,2-dimethylpropionamide], the Emax at 10 µM [1] is reported as over 75% and the Emax at 10 µM [2] is reported as 25 to 50%.
`CC(C)(CC[C@H]1CC[C@H](C(=O)O)CC1)NC[C@H](O)c1cncc(F)c1` [Compound 343, (1R,4r)-4-{3-[(R)-2-(5-fluoro-3-pyridyl)-2-hydroxyethylamino]-3-methylbutyl}cyclohexanecarboxylic acid] showed an Emax at 10 µM [1] of 25 to 50% and an Emax at 10 µM [2] of under 25%.
`O[C@H](c1cncc(F)c1)[C@H]1CC[C@@H](Cc2ccc(Cl)cc2)N1` [Compound 404, (R)-{(2R,5S)-5-[(p-chlorophenyl)methyl]-2-pyrrolidinyl}(5-fluoro-3-pyridyl)methanol] showed an Emax at 10 µM [1] of over 75% and an Emax at 10 µM [2] of under 25%.
For `CC(C)(C[C@H]1CC[C@H](N)CC1)NC[C@@H](O)c1cccc(C#N)n1` [Compound 415, 6-[(R)-2-{1,1-dimethyl-2-[(1r,4R)-4-aminocyclohexyl]ethylamino}-1-hydroxyethyl]-2-pyridinecarbonitrile], the Emax at 10 µM [1] was 50 to 75% and the Emax at 10 µM [2] was under 25%.
For `CCC[C@H]1CCC[C@H]([C@H](O)c2cccc(O)c2)N1` [Compound 64, (R)-[(2R,6S)-6-propyl-2-piperidyl](m-hydroxyphenyl)methanol], the Emax at 10 µM [1] was over 75% and the Emax at 10 µM [2] was under 25%.
For `COC(=O)[C@H]1CC[C@@H](C(C)(C)NC[C@H](O)c2cncc(F)c2)CC1` [Compound 321, (1S,4s)-8-[(R)-2-(5-fluoro-3-pyridyl)-2-hydroxyethylamino]-7-methoxy-p-menthan-7-one], the Emax at 10 µM [1] was 50 to 75% and the Emax at 10 µM [2] was under 25%.
`CN(C)S(=O)(=O)[C@H]1CC[C@@H](CC(C)(C)NC[C@H](O)c2cccc(F)c2)CC1` [Compound 470, (R)-2-{1,1-dimethyl-2-[(1s,4S)-4-(dimethylaminosulfonyl)cyclohexyl]ethylamino}-1-(m-fluorophenyl)-1-ethanol] gave an Emax at 10 µM [1] of over 75% and an Emax at 10 µM [2] of 25 to 50%.
`CC(C)(C[C@H]1CC[C@H](S(N)(=O)=O)CC1)NC[C@H](O)c1cncc(F)c1` [Compound 518, (1R,4r)-4-{2-[(R)-2-(5-fluoro-3-pyridyl)-2-hydroxyethylamino]-2-methylpropyl}cyclohexanesulfonamide] showed an Emax at 10 µM [1] of 50 to 75% and an Emax at 10 µM [2] of under 25%.
`CS(=O)(=O)N(Cc1ccccc1)c1cccc(CC23CCC([C@H](O)c4cccc(F)c4)(CC2)N3)c1` [Compound 513, (R)-[4-({m-[(benzyl)-N-mesylamino]phenyl}methyl)-7-azabicyclo[2.2.1]hept-1-yl](m-fluorophenyl)methanol] showed an Emax at 10 µM [1] of 25 to 50% and an Emax at 10 µM [2] of under 25%.
With `COc1ccc(C[C@H]2CC[C@H]([C@@H](O)c3cccc(F)c3)N2)cc1` [Compound 375, (S)-{(2R,5R)-5-[(p-methoxyphenyl)methyl]-2-pyrrolidinyl}(m-fluorophenyl)methanol] the Emax at 10 µM [1] was over 75% and the Emax at 10 µM [2] was under 25%.
With `CC(=O)N[C@H]1CC[C@@H](CC(C)(C)NC[C@H](O)c2cccnc2C)CC1` [Compound 436, N-[(1S,4s)-4-{2-[(R)-2-hydroxy-2-(2-methyl-3-pyridyl)ethylamino]-2-methylpropyl}cyclohexyl]acetamide] the Emax at 10 µM [1] was 50 to 75% and the Emax at 10 µM [2] was under 25%.
`O[C@@H](c1cccc(F)c1)C12CCC(Cc3ccc(F)cc3)(CC1)N2` [Compound 412, (S)-(m-fluorophenyl){4-[(p-fluorophenyl)methyl]-7-azabicyclo[2.2.1]hept-1-yl}methanol] showed an Emax at 10 µM [1] of 50 to 75% and an Emax at 10 µM [2] of under 25%.
In the case of `CC12CCC([C@@H](O)c3cncc(F)c3)(CC1)N2` [Compound 184, (S)-(5-fluoro-3-pyridyl)(4-methyl-7-azabicyclo[2.2.1]hept-1-yl)methanol], the Emax at 10 µM [1] is reported as 50 to 75% and the Emax at 10 µM [2] is reported as under 25%.
Compound `CCC[C@@H]1CCC[C@H]([C@@H](O)c2cccc(F)c2)N1` [Compound 60, (S)-[(2R,6R)-6-propyl-2-piperidyl](m-fluorophenyl)methanol] has an Emax at 10 µM [1] of 25 to 50% and an Emax at 10 µM [2] of under 25%.
